Read-outs that look alike come from different tables or passages of the source.
Experiments:
[1] = target: HLA-B*1502 allele (Homo sapiens, UniProt P01889, A329T/A93T/A95T/C349S/D201E/D98Y/E187L/E204Q/E69M/E70A/H137Y/K202T/L119I/Q94N/R155S/R180L/S121R/S35A/S48A/T118I/V306I/V36M/Y140S/Y91S); settings: HLA-B*15:02
[2] = patients taking sulfasalazine; clinical setting; cited from earlier work
[3] = tested on: combination of HLA-B*1301 allele and HLA-B*3901 allele; settings: in vivo
[4] = target: HLA-B*1301 allele (Homo sapiens, UniProt P01889, A65T/A93T/A95T/D138N/D201E/D98Y/E176V/E204Q/E69M/E70A/G107R/K202T/L105A/L119I/N104T/N87E/Q94N/R106L/R155S/R169L/R180L/S101N/S121R/S35A/S48T/T118I/V127L/V36M/Y140L/Y91S); settings: HLA-B*13:01
[5] = tested on: combination of HLA-B*1502 allele and HLA-B*3802 allele; settings: in vivo
[6] = target: HLA-B*3901 allele (Homo sapiens, UniProt P01889, A182T/A93T/A95T/C349S/D138N/D201E/E176V/E187T/E204Q/K202T/Q94N/R155S/R180L/S121R/Y140F/Y91C); settings: HLA-B*39:01
[7] = tested on: combination of HLA-B*1301 allele, HLA-B*3802 allele and HLA-B*3901 allele; settings: in vivo
[8] = target: HLA-B*3802 allele (Homo sapiens, UniProt P01889, A182T/A93T/A95T/C349S/D138N/D201E/D98Y/E176V/E187T/E204Q/G107R/K202T/L105A/N104T/Q94N/R106L/R155S/R180L/S101N/S121R/Y140F/Y91C); settings: HLA-B*38:02
[9] = tested on: combination of HLA-B*1301 allele, HLA-B*1502 allele, HLA-B*3802 allele and HLA-B*3901 allele; settings: in vivo
[10] = Sulfasalazine-DRESS vs healthy control
[11] = Sulfasalazine-SCAR vs healthy control
[12] = Sulfasalazine-SJS/TEN patients, listed as sulfasalazine
[13] = Sulfasalazine-SJS/TEN vs healthy control
[14] = Sulfasalazine-SJS/TEN vs healthy control, listed as sulfasalazine
[15] = Sulfasalazine-DRESS patients, listed as sulfasalazine
[16] = Sulfasalazine-DRESS vs healthy control, listed as sulfasalazine

## O=C(O)c1cc(/N=N/c2ccc(S(=O)(=O)Nc3ccccn3)cc2)ccc1O [Sulfasalazine]
[1]; Sulfasalazine-DRESS
  Sensitivity (%): 9.53%
  Specificity (%): 90.75%
[1]; Sulfasalazine-DRESS patients
  SCAR N (%) carrying the allele: 2/21
[1]; [10]
  Odds Ratio (95% CI): 1.0
[1]; Sulfasalazine-SCAR
  Sensitivity (%): 21.88%
  Specificity (%): 90.75%
[1]; Sulfasalazine-SCAR patients
  SCAR N (%) carrying the allele: 7/32
[1]; [11]
  Odds Ratio (95% CI): 2.7
[1]; Sulfasalazine-SJS/TEN
  Sensitivity (%): 45.45%
  Specificity (%): 90.75%
[1]; Sulfasalazine-SJS/TEN patients
  SCAR N (%) carrying the allele: 5/11
[1]; [12]
  SCAR N (%) carrying the allele: 5 out of 11
[1]; [13]
  Odds Ratio (95% CI): 8.2
[1]; [14]
  Odds Ratio (95% CI): 8.2 (2.4-27.4)
[2]
  patients developing obvious side effects: Approximately 25%
[3]
  Specificity (%): 83.95%
[4]; Sulfasalazine-DRESS
  Sensitivity (%): 38.10%
  Specificity (%): 87.89%
[4]; Sulfasalazine-DRESS patients
  SCAR N (%) carrying the allele: 8/21
[4]; [15]
  SCAR N (%) carrying the allele: 8 of 21
[4]; [10]
  Odds Ratio (95% CI): 4.5
[4]; [16]
  Odds Ratio (95% CI): 4.5 (1.8-11.0)
[4]; Sulfasalazine-SCAR
  Sensitivity (%): 28.13%
  Specificity (%): 87.89%
[4]; Sulfasalazine-SCAR patients
  SCAR N (%) carrying the allele: 9/32
[4]; [11]
  Odds Ratio (95% CI): 2.8
[4]; Sulfasalazine-SJS/TEN
  Sensitivity (%): 9.09%
  Specificity (%): 87.89%
[4]; Sulfasalazine-SJS/TEN patients
  SCAR N (%) carrying the allele: 1/11
[4]; [13]
  Odds Ratio (95% CI): 0.7
[5]
  Specificity (%): 83.74%
[6]; Sulfasalazine-DRESS
  Sensitivity (%): 38.10%
  Specificity (%): 95.43%
[6]; Sulfasalazine-DRESS patients
  SCAR N (%) carrying the allele: 8/21
[6]; [15]
  SCAR N (%) carrying the allele: 8 of 21
[6]; [10]
  Odds Ratio (95% CI): 12.2
[6]; [16]
  Odds Ratio (95% CI): 12.2 (4.6-32.5)
[6]; Sulfasalazine-SCAR
  Sensitivity (%): 28.13%
  Specificity (%): 95.43%
[6]; Sulfasalazine-SCAR patients
  SCAR N (%) carrying the allele: 9/32
[6]; [11]
  Odds Ratio (95% CI): 8.2
[6]; Sulfasalazine-SJS/TEN
  Sensitivity (%): 0%
  Specificity (%): 95.43%
[6]; Sulfasalazine-SJS/TEN patients
  SCAR N (%) carrying the allele: 0/11
[6]; [13]
  Odds Ratio (95% CI): 1.1
[7]
  SCAR N (%) carrying the alleles: 22/32
  Sensitivity (%): 68.75%
  Specificity (%): 78.32%
[8]; Sulfasalazine-DRESS
  Sensitivity (%): 0%
  Specificity (%): 92.45%
[8]; Sulfasalazine-DRESS patients
  SCAR N (%) carrying the allele: 0/21
[8]; [10]
  Odds Ratio (95% CI): 0.3
[8]; Sulfasalazine-SCAR
  Sensitivity (%): 18.75%
  Specificity (%): 92.45%
[8]; Sulfasalazine-SCAR patients
  SCAR N (%) carrying the allele: 6/32
[8]; [11]
  Odds Ratio (95% CI): 2.8
[8]; Sulfasalazine-SJS/TEN
  Sensitivity (%): 54.54%
  Specificity (%): 92.45%
[8]; Sulfasalazine-SJS/TEN patients
  SCAR N (%) carrying the allele: 6/11
[8]; [12]
  SCAR N (%) carrying the allele: 6 out of 11
[8]; [13]
  Odds Ratio (95% CI): 14.7
[8]; [14]
  Odds Ratio (95% CI): 14.7 (4.4-49.4)
[9]
  SCAR N (%) carrying the alleles: 24/32
  Sensitivity (%): 75.00%
  Specificity (%): 60.35%
